Source: patent US20260083865A1, “PROSTATE SPECIFIC MEMBRANE ANTIGEN (PSMA) LIGANDS AND USE THEREOF” (priority 2022, published 2026)
Like-named read-outs stand apart in the source and are kept apart here. Numbered stars: 1 amine (or outer) side, 2 acyl side, 3 side chain; on linkers, the order of the positions; unused ones are H or OH. Bridge positions count the residues as written; N and C are the ends. Square brackets hold non-standard residues; d marks the D form. Side chains are listed from the residue outwards. Peptide text beside a SMILES is read from it. * marks the point of attachment. TtdsdLys(DOTA)NH2 = NC(=O)[C@@H](CCCCNC(=O)CN1CCN(CC(=O)O)CCN(CC(=O)O)CCN(CC(=O)O)CC1)NC(=O)CCC(=O)NCCCOCCOCCOCCCN*; X2 = O=C(O)CN1CCN(CC(=O)O)CCN([C@H](CCC(=O)*)C(=O)O)CCN(CC(=O)O)CC1; DOTA = O=C(O)CN1CCN(CC(=O)O)CCN(CC(=O)*)CCN(CC(=O)O)CC1; Phe(3-Cl) = N[C@@H](Cc1cccc(Cl)c1)C(=O)O; Phe(4-Cl) = N[C@@H](Cc1ccc(Cl)cc1)C(=O)O; Ethylenediamine = C(CN[*:2])N[*:1]; X1 = O=C(CC1CCN([*:1])CC1)[*:2]; Tle = CC(C)(C)[C@H](N)C(=O)O; Propanoyl(3-OH) = O=C(CCO)*; 4Amb = NCc1ccc(C(=O)O)cc1; AEEA = NCCOCCOCC(=O)O; Aib = CC(C)(N)C(=O)O

Assays:
[1] = biological target: T1, Fc-fusion protein of human PSMA (hPSMA-Fc) (Homo sapiens, UniProt Q04609); experiment: Surface plasmon resonance assay (Biacore T200, single cycle kinetic); type: binding; details: hPSMA-Fc, 25° C., read-out: pKD CAT (converted)
T1 construct: purchased Acro Biosystems PSA-H5264
Procedure, shortened: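 hPSMA-Fc was captured (~1000 RU) on an Fc-binding-peptide CM5 chip, and compounds were run in single cycle kinetic mode at 25° C in HBST with 0.1% DMSO. Double-blank-corrected sensorgrams were fitted to a 1:1 Langmuir model to give KD, reported as pKD.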

PC3-PIP tumor model = system: PC3-PIP tumor model; parameters: species or system mice; details: mouse, in vivo
Source text: Radioactively labeled compounds can be detected by imaging methods such as SPECT and PET. Furthermore, the data acquired by such techniques can be confirmed by direct measurement of radioactivity contained in the individual organs prepared from an animal injected with a radioactively labeled compound of the disclosure. Thus, the biodistribution (the measurement of radioactivity in individual organs) of a radioactively labeled compound can be determined and analyzed. […] All animal experiments were conducted in compliance with the German animal protection laws. Male swiss or NMRI nude mice (6-8 weeks old, Janvier Labs, France) were inoculated with 5×10^6 PC3-PIP cells in the right shoulder. For selected compounds an additional model was used, here male NMRI nude mice (6-8 weeks old, Janvier Labs, France) were inoculated with 5×10^6 or/1×10^7 C4-2 cells in the right shoulder. When tumors reached an appropriate size, the mice received ˜30 MBq ^111In-labeled compounds of the disclosure (diluted to 100 μL with PBS) administered intravenously via the tail vein. Images were obtained on a NanoSPECT/computed tomography system (Mediso Medical Imaging Systems, Budapest, Hungary) using exemplarily the following acquisition and reconstruction parameters (Table 10). [table] Imaging data were saved as DICOM files and analysed using VivoQuant™ software (Invicro, Boston, USA). In brief, regions of interest (ROIs) were drawn based on computed tomography images for the relevant organs and tissue regions such as heart (estimate of blood pool, bps), kidney, and tumor. The resulting numeric data expressed as a percentage of injected dose per gram of tissue (% ID/g) are presented in FIGS. 3(a)-3(ii) for the PC3-PIP model and FIGS. 4(a)-4(r) for the C4-2 model. Bars show mean % ID/g values of two to three animals per time point. Error bars indicate the value range (minimum and maximum values).

[2] = biological target: T2, PSMA-expressing C4-2 cells (Homo sapiens, UniProt Q04609); experiment: FACS binding assay (competition with 50 nM PSM-0183); details: FACS binding, read-out: pIC50 [C4-2] CAT (converted)
T2 construct: PSMA-expressing C4-2 cells (ATCC, Cat. No. CRL-3314) were cultured in RPMI-1640; host or cells: C4-2 cells
Procedure, shortened: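 C4-2 cells were incubated 1 h at 4 °C with 50 nM AF488-labelled peptide PSM-0183 plus increasing test compound concentrations, then washed twice in ice-cold buffer. Median fluorescence in the AF488 channel was read by flow cytometry. IC50/pIC50 was derived by 4PL fitting of MFI versus concentration.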

[3] = SPR, single cycle kinetic, category
[4] = C4-2 cells, competition with 50 nM PSM-0183, category
[5] = PSMA-expressing C4-2 cells, pIC50 category

T1 sequence (Q04609 44-750 limits assumed): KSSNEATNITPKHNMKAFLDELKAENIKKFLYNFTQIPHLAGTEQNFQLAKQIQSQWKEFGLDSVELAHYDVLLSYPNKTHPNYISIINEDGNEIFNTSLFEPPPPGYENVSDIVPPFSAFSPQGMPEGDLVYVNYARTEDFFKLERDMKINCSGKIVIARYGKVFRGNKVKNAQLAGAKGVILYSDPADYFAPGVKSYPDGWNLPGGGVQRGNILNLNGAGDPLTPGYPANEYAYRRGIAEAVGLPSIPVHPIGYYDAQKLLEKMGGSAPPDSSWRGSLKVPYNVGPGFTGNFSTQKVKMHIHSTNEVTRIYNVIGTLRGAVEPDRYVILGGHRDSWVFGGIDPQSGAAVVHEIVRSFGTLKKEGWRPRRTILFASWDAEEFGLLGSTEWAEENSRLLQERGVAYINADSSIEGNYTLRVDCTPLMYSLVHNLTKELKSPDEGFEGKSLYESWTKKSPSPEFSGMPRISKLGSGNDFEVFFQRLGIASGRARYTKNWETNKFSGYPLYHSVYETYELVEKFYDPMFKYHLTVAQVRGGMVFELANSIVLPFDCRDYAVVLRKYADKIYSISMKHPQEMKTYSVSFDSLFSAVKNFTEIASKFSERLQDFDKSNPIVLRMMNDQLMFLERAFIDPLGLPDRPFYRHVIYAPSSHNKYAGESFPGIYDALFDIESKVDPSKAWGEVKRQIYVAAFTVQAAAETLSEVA
T2 sequence (Q04609 whole entry): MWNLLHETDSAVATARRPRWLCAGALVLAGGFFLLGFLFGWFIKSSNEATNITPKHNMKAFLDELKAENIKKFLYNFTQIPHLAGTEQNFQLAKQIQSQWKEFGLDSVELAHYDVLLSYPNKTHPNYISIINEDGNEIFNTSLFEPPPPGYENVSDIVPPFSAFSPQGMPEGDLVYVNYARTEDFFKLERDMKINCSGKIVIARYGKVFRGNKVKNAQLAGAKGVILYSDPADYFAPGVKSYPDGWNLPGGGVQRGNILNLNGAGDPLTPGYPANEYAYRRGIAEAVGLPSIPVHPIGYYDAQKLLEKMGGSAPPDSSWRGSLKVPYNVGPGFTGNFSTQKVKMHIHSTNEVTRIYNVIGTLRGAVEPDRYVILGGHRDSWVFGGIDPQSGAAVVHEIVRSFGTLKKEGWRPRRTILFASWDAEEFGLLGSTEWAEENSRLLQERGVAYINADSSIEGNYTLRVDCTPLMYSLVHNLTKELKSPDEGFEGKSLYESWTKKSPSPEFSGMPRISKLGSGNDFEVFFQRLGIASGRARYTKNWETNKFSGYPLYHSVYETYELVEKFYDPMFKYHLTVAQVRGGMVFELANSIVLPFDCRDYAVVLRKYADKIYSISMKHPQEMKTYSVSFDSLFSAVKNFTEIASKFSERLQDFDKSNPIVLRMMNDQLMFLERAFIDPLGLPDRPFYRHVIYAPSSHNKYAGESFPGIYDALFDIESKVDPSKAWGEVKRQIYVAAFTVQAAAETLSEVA

Compound	Kd [1, 3]	AUC ratio [T/K] (PC3-PIP tumor model)	Tumor AUC (PC3-PIP tumor model)	IC50 [2, 4]	Kd ([1]; PSMA SPR assay, pKD category)	IC50 [2, 5]
C[C@@H](O)[C@H](NC(=O)CC1CCN(C(=O)CN2CCN(CC(=O)O)CCN(CC(=O)O)CCN(CC(=O)O)CC2)CC1)C(=O)NC(C)(C)C(=O)N[C@@H](Cc1ccccc1)C(=O)N[C@H]1CSSC[C@@H](C(=O)N[C@H](C(=O)NCCN)C(C)(C)C)NC(=O)[C@H](CC(N)=O)NC(=O)C(C)(C)NC(=O)[C@H](CCCNC(=N)N)NC(=O)[C@H](CCCCN)NC1=O [PSM-0241, DOTA-Cmp-Thr-Aib-Phe-[Cys-Lys-Arg-Aib-Asn-Cys]-Tle-en] ({DOTA}-[X1]T[Aib]FCKR[Aib]NC[Tle]-Ethylenediamine; disulfide 5-10)	< 0.0126 µM	0.54	300 % ID/g*h	< 0.2 µM	–	–
CC(=O)N[C@H](C(=O)NC(C)(C)C(=O)N[C@@H](Cc1cccc(Cl)c1)C(=O)N[C@H]1CSSC[C@@H](C(=O)N[C@H](C(=O)N[C@H](C(N)=O)[C@@H](C)O)C(C)(C)C)NC(=O)[C@H](CC(N)=O)NC(=O)[C@H](CCCCNC(=O)COCCOCCNC(=O)CN2CCN(CC(=O)O)CCN(CC(=O)O)CCN(CC(=O)O)CC2)NC(=O)[C@H](CCCNC(=N)N)NC(=O)[C@H](CCCCN)NC1=O)[C@@H](C)O [PSM-0243, Ac-Thr-Aib-Mcf-[Cys-Lys-Arg-Lys(DOTA-O2Oc)-Asn-Cys]-Tle-Thr-NH2] (Ac-T[Aib][Phe(3-Cl)]CKRK([AEEA-DOTA])NC[Tle]T-NH2; disulfide 4-9)	< 0.0126 µM	0.53	130 % ID/g*h	< 0.2 µM	–	–
C[C@@H](O)[C@H](NC(=O)[C@@H](NC(=O)[C@@H]1CSSC[C@H](NC(=O)[C@H](Cc2ccc(Cl)cc2)NC(=O)C(C)(C)NC(=O)CCO)C(=O)N[C@@H](CCCCN)C(=O)N[C@@H](CCCNC(=N)N)C(=O)NC(C)(C)C(=O)N[C@@H](CC(N)=O)C(=O)N1)C(C)(C)C)C(=O)N[C@H](CCCCNC(=O)CN1CCN(CC(=O)O)CCN(CC(=O)O)CCN(CC(=O)O)CC1)C(N)=O [PSM-0267, HPA-Aib-Pcf-[Cys-Lys-Arg-Aib-Asn-Cys]-Tle-Thr-lys(DOTA)-NH2] ({Propanoyl(3-OH)}-[Aib][Phe(4-Cl)]CKR[Aib]NC[Tle]T[dK](DOTA)-NH2; disulfide 3-8)	< 0.0126 µM	1.2	170 % ID/g*h	< 0.2 µM	–	–
CC(=O)N[C@H](C(=O)NC(C)(C)C(=O)N[C@@H](Cc1ccc(Cl)cc1)C(=O)N[C@H]1CSSC[C@@H](C(=O)N[C@H](C(=O)NCCNC(=O)CN2CCN(CC(=O)O)CCN(CC(=O)O)CCN(CC(=O)O)CC2)C(C)(C)C)NC(=O)[C@H](CC(N)=O)NC(=O)C(C)(C)NC(=O)[C@H](CCCNC(=N)N)NC(=O)[C@H](CCCCN)NC1=O)[C@@H](C)O [PSM-0269, Ac-Thr-Aib-Pcf-[Cys-Lys-Arg-Aib-Asn-Cys]-Tle-en-DOTA] (Ac-T[Aib][Phe(4-Cl)]CKR[Aib]NC[Tle]-{Ethylenediamine-DOTA}; disulfide 4-9)	–	0.87	150 % ID/g*h	–	< 0.0126 µM	< 0.2 µM
CC(C)(NC(=O)c1ccc(CNC(=O)CN2CCN(CC(=O)O)CCN(CC(=O)O)CCN(CC(=O)O)CC2)cc1)C(=O)N[C@@H](Cc1ccc(Cl)cc1)C(=O)N[C@H]1CSSC[C@@H](C(=O)N[C@H](C(=O)NCCN)C(C)(C)C)NC(=O)[C@H](CC(N)=O)NC(=O)C(C)(C)NC(=O)[C@H](CCCNC(=N)N)NC(=O)[C@H](CCCCN)NC1=O [PSM-0273, DOTA-Pamb-Aib-Pcf-[Cys-Lys-Arg-Aib-Asn-Cys]-Tle-en] ({DOTA-4Amb}-[Aib][Phe(4-Cl)]CKR[Aib]NC[Tle]-Ethylenediamine; disulfide 3-8)	–	0.21	110 % ID/g*h	–	< 0.0126 µM	< 0.2 µM
C[C@@H](O)[C@H](NC(=O)[C@@H](NC(=O)[C@@H]1CSSC[C@H](NC(=O)[C@H](Cc2ccc(Cl)cc2)NC(=O)C(C)(C)NC(=O)c2ccc(CNC(=O)CN3CCN(CC(=O)O)CCN(CC(=O)O)CCN(CC(=O)O)CC3)cc2)C(=O)N[C@@H](CCCCN)C(=O)N[C@@H](CCCNC(=N)N)C(=O)NC(C)(C)C(=O)N[C@@H](CC(N)=O)C(=O)N1)C(C)(C)C)C(N)=O [PSM-0283, DOTA-Pamb-Aib-Pcf-[Cys-Lys-Arg-Aib-Asn-Cys]-Tle-Thr-NH2] ({DOTA-4Amb}-[Aib][Phe(4-Cl)]CKR[Aib]NC[Tle]T-NH2; disulfide 3-8)	–	1.6	200 % ID/g*h	–	< 0.0126 µM	< 0.2 µM
CC(=O)N[C@H](C(=O)NC(C)(C)C(=O)N[C@@H](Cc1ccccc1)C(=O)N[C@H]1CSSC[C@@H](C(=O)N[C@H](C(=O)N[C@H](C(=O)NCCCOCCOCCOCCCNC(=O)CCC(=O)N[C@H](CCCCNC(=O)CN2CCN(CC(=O)O)CCN(CC(=O)O)CCN(CC(=O)O)CC2)C(N)=O)[C@@H](C)O)C(C)(C)C)NC(=O)[C@H](CC(N)=O)NC(=O)C(C)(C)NC(=O)[C@H](CCCNC(=N)N)NC(=O)[C@H](CCCCN)NC1=O)[C@@H](C)O [PSM-0285, Ac-Thr-Aib-Phe-[Cys-Lys-Arg-Aib-Asn-Cys]-Tle-Thr-Ttds-lys(DOTA)-NH2] (Ac-T[Aib]FCKR[Aib]NC[Tle]T-{TtdsdLys(DOTA)NH2}; disulfide 4-9)	–	0.91	210 % ID/g*h	–	< 0.0126 µM	< 0.2 µM
CC(=O)N[C@H](C(=O)NC(C)(C)C(=O)N[C@@H](Cc1cccc(Cl)c1)C(=O)N[C@H]1CSSC[C@@H](C(=O)N[C@H](C(=O)N[C@H](C(N)=O)[C@@H](C)O)C(C)(C)C)NC(=O)[C@H](CC(N)=O)NC(=O)[C@H](CCCCNC(=O)COCCOCCNC(=O)CC[C@H](C(=O)O)N2CCN(CC(=O)O)CCN(CC(=O)O)CCN(CC(=O)O)CC2)NC(=O)[C@H](CCCNC(=N)N)NC(=O)[C@H](CCCCN)NC1=O)[C@@H](C)O [PSM-0301, Ac-Thr-Aib-Mcf-[Cys-Lys-Arg-Lys (DOTAGA-020c)-Asn-Cys]-Tle-Thr-NH2] (Ac-T[Aib][Phe(3-Cl)]CKRK([AEEA-X2])NC[Tle]T-NH2; disulfide 4-9)	–	0.45	83 % ID/g*h	–	< 0.0126 µM	< 0.2 µM
CC(=O)N[C@H](C(=O)NC(C)(C)C(=O)N[C@@H](Cc1ccccc1)C(=O)N[C@H]1CSSC[C@@H](C(=O)N[C@H](C(=O)N[C@H](C(=O)N2CCC(CC(=O)N[C@H](CCCCNC(=O)CC[C@H](C(=O)O)N3CCN(CC(=O)O)CCN(CC(=O)O)CCN(CC(=O)O)CC3)C(N)=O)CC2)[C@@H](C)O)C(C)(C)C)NC(=O)[C@H](CC(N)=O)NC(=O)C(C)(C)NC(=O)[C@H](CCCNC(=N)N)NC(=O)[C@H](CCCCN)NC1=O)[C@@H](C)O [PSM-0339, Ac-Thr-Aib-Phe-[Cys-Lys-Arg-Aib-Asn-Cys]-Tle-Thr-Cmp-lys (DOTAGA)-NH2] (Ac-T[Aib]FCKR[Aib]NC[Tle]T[X1][dK](X2)-NH2; disulfide 4-9)	–	1.2	160 % ID/g*h	–	< 0.0126 µM	< 0.2 µM
C[C@@H](O)[C@H](NC(=O)CC1CCN(C(=O)CN2CCN(CC(=O)O)CCN(CC(=O)O)CCN(CC(=O)O)CC2)CC1)C(=O)NC(C)(C)C(=O)N[C@@H](Cc1ccccc1)C(=O)N[C@H]1CSSC[C@@H](C(=O)N[C@H](C(N)=O)C(C)(C)C)NC(=O)[C@H](CC(N)=O)NC(=O)C(C)(C)NC(=O)[C@H](CCCNC(=N)N)NC(=O)[C@H](CCCCN)NC1=O [PSM-0361, DOTA-Cmp-Thr-Aib-Phe-[Cys-Lys-Arg-Aib-Asn-Cys]-Tle-NH2] ({DOTA}-[X1]T[Aib]FCKR[Aib]NC[Tle]-NH2; disulfide 5-10)	–	0.85	110 % ID/g*h	–	< 0.0126 µM	< 0.2 µM
